Results published in US10036741B2, “Systems, models and methods for identifying and evaluating skin-active agents effective for treating an array of skin disorders” (The Procter & Gamble Company, priority 2012, dated 2018).

Legend:
[1] = tested on: dandruff; assay: Effect of ZPT-containing shampoo on the unhealthy skin gene expression signature in dandruff sufferers (Study 2); assay type: in vivo, human; conditions: dandruff subjects, scalp biopsies, three weeks of treatment
Protocol: Hierarchical Cluster Analysis of Dandruff vs. Non-Dandruff (Study 1): Genome-wide transcriptional profiles of the dandruff condition and healthy scalp were assessed using RNA extracted from full thickness scalp biopsies. […] Each row in FIG. 9 represents a single probe set and each column represents the group average of all subjects (not a single microarray experiment).
Effect of zinc pyrithione (ZPT) on the Unhealthy Skin Gene Expression Signature in Dandruff Sufferers (Study 2): We examined the effect of ZPT on the transcriptomic profile in dandruff sufferers during a course of treatment known to resolve the key symptoms of the condition (flake and itch) and substantially restore the scalp skin histology and cell surface biomarker profile to a healthy state. In this study, we were able to replicate our key transcriptomic findings from Study 1 in a second study population. It is notable that using the expression levels of the same 400 probe sets in the unhealthy gene expression signature, which all satisfied the p<0.05 criterion, hierarchical cluster analysis again clearly separated Dandruff from Non-dandruff (see All Dandruff Baseline vs. Non-Dandruff Baseline). […] This underscores the fundamental importance of the gene products associated with this signature to skin homeostasis.

[2] = tested on: unhealthy skin gene expression signature; assay: Connectivity mapping (C-map) query of stored skin instances with the unhealthy skin gene expression signature; assay type: cell-based, human; conditions: text statement on highest-ranked results of Table C
Text: Referring to FIG. 6 and FIG. 7, an exemplary method for querying instances with one or more gene expression signatures will now be described. Broadly, the method comprises querying a data architecture of stored instances (e.g., skin instances) with one or more gene signatures (e.g., an unhealthy skin gene expression signature), and applying a statistical method to determine how strongly the gene expression signature genes match the regulated genes in an instance.
The up-score and down-score have, for example, values between +1 and −1. […] In these embodiments, the gene expression signature comprises the combination of the up list and the down list. […]
The combination of the up-score and down-score is used to calculate an overall connectivity score for each instance, and in embodiments where up- and down-score ranges are set between −1 and +1, the connectivity score ranges from −2 to +2, and represents the strength of match between a query gene expression signature and the instance. The sign of the overall score is determined by whether the instance links positivity or negatively to the signature. […]

Compound	gene expression profile (400 probe sets of unhealthy skin signature), hierarchical cluster analysis [1]	rank of instances in C-map query (linkage score) [2]
zinc pyrithione [zinc pyriothione]	reversal of the unhealthy skin gene expression signature	
NC(=O)c1cccnc1 [Nicotinamide]		strongest negative linkage scores
CC1=C(/C=C/C(C)=C/C=C/C(C)=C/C(=O)O)C(C)(C)CCC1 [All-trans retinoic acid]		strongest negative linkage scores
